Where two headings read alike, the source gives them in different places.

The values that follow come from patent publication US9026203B2, “Photosensitizing compositions” (PCI Biotech AS, priority 2009, dated 2015).

A short description of series [1]: Stability of aqueous solutions of salts at 40° C., analyzed by HPLC. Format: physicochemical. The protocol:
Aqueous solutions of TPPS2a salts (approx. 1% weight) were kept at 40° C. for 31 days. The solutions were analyzed by HPLC (HP 1100). The HPLC conditions were as follows:
Column: Agilent Extend C-18
Mobile phase: 85% methanol, 15% water
Detector: UV detector, 415 nm
Aqueous solutions of TPCS2a salts (approx. 1% weight) were kept at 40° C. for 31 days.

The nature of series [2]: Solubility of salts in water (water added in 0.2 ml portions). The format is physicochemical.
From the text: The mixture was agitated until solid particles were broken up and dissolved.
The test system of series [3] is target tumour (head and neck squamous cell carcinoma, osteosarcoma, skin metastases of breast cancer). Conditions: other photosensitizers formulated in non-aqueous formulations; cited from earlier work.
The test system is the same in series [4]. The format is in vivo, patients. Conditions: 0.25-1.0 mg/kg 4 days before illumination (652 nm, 60 J/cm^2), bleomycin 15 000 IU per m^2 i.v. 3 hours before illumination; a few weeks after treatment. The protocol:
In addition, the patients received an intravenous injection of the cytotoxic agent bleomycin (15 000 IU per m^2 body surface) 3 hours before illumination. […] The aqueous formulation also made it possible to flush the injection needle and vein with saline after photosensitizer injection, thereby eliminating the unwanted effect of photosensitivity at or near to the injection site which is often observed for photosensitizers in non-aqueous formulations where such flushing is not possible. The patient population included patients with head and neck cancers (squamous cell carcinoma), osteosarcoma and skin metastases of breast cancer.

Setting [5] is: aqueous solution approx. 1% weight, 40° C. for 31 days, HPLC UV 415 nm.

On to `NCCO.NCCO.O=S(=O)(O)c1ccc(-c2c3nc(c(-c4ccc(S(=O)(=O)O)cc4)c4ccc([nH]4)c(-c4ccccc4)c4nc(c(-c5ccccc5)c5ccc2[nH]5)C=C4)C=C3)cc1` [Example 1, Meso-Tetraphenyl Porphyrin Disulphonate bis(monoethanolamine)], for which, in series [1] (setting [5]), the Degradation entry was “No degradation”.
Take `CNCC(O)C(O)C(O)C(O)CO.CNCC(O)C(O)C(O)C(O)CO.O=S(=O)(O)c1ccc(-c2c3nc(c(-c4ccccc4)c4ccc([nH]4)c(-c4ccccc4)c4nc(c(-c5ccc(S(=O)(=O)O)cc5)c5ccc2[nH]5)C=C4)C=C3)cc1` [Example 2, Meso-Tetraphenyl Porphyrin Disulphonate bis(meglumate)]: the “Minimum solubility in water” value in series [2] turned out to be 89.7 mg/mL. In series [1], the Degradation result is “No degradation”.
For `O=S(=O)(O)c1ccc(-c2c3nc(c(-c4ccccc4)c4ccc([nH]4)c(-c4ccccc4)c4nc(c(-c5ccc(S(=O)(=O)O)cc5)c5ccc2[nH]5)C=C4)C=C3)cc1.OCCNCCO.OCCNCCO` [Example 4, Meso-Tetraphenyl Porphyrin Disulphonate bis(diethanolamine)], in series [1], the Degradation entry is reported as “No degradation”.
Still for that read-out and setting: in the case of `O=S(=O)(O)c1ccc(-c2c3nc(c(-c4ccc(S(=O)(=O)O)cc4)c4ccc([nH]4)c(-c4ccccc4)c4nc(c(-c5ccccc5)c5ccc2[nH]5)C=C4)C=C3)cc1.OCCN1CCCC1.OCCN1CCCC1` [Example 5, Meso-Tetraphenyl Porphyrin Disulphonate bis(1-(2-hydroxyethyl)pyrrolidine)] it was “No degradation”.
Turning to `O=S(=O)(O)c1ccc(-c2c3nc(c(-c4ccc(S(=O)(=O)O)cc4)c4ccc([nH]4)c(-c4ccccc4)c4nc(c(-c5ccccc5)c5ccc2[nH]5)C=C4)C=C3)cc1.OCCN(CCO)CCO.OCCN(CCO)CCO` [Example 6, Meso-Tetraphenyl Porphyrin Disulphonate bis(triethanolamine)], the Degradation entry in series [1] (setting [5]) was “No degradation”.
Take `Oc1cccc(-c2c3nc(c(-c4cccc(O)c4)c4ccc([nH]4)c(-c4cccc(O)c4)c4nc(c(-c5cccc(O)c5)c5ccc2[nH]5)CC4)C=C3)c1` [temoporfin]: the Pain on administration result in series [3] is on record as “can be associated with strong pain”.
“Meso-Tetraphenyl Chlorin Disulphonate bis(meglumate) [Example 8]”: in series [2] (approx. 50 mg salt, water added in 0.2 ml portions until dissolved), the “Minimum solubility in water” value worked out at 38.9 mg/mL. In addition, the Degradation result in series [1] (setting [5]) was “No degradation”.
Take “Meso-Tetraphenyl Chlorin Disulphonate bis(monoethanolamine) [Example 7]”: the Degradation result in series [1] is “No degradation”.
Take “Meso-tetraphenyl chlorin disulphonate [TPCS2a]”: in series [4], the “Clinical regression of the target tumour” value is reported as “Complete clinical regression of the target tumour was induced in all patients”.
